Experimental data taken from patent US8093050B2, “mTOR inhibtors and mTOR signaling pathway inhibitors induce differentiation of human embryonic stem cells into the osteoblastic lineage” (Korea Research Institute of Bioscience and Biotechnology, priority 2007, dated 2012).
Entries after “also recorded” stand apart in the source; their conditions may differ.

Columns and labels:
[1] = test system: human embryonic stem cells; test: RT-PCR of osteoblast-specific genes, adhesion culture (FIG. 5); type: cell-based; conditions: for expression of osteoblast-specific genes: 10 μM of LY29400, 1 μM of an AKT inhibitor, or rapamycin; for expression level of osteoblastic markers: human embryonic stem cells, LY294002, AKT inhibitor, or 20 nM rapamycin for 5 days
Procedure: For osteogenic differentiation by adhesion culturing, the human embryonic stem cells obtained in Example 1, after passage, were cultured in the culture medium of Example 1 for 2 days, and then in a culture medium, free of recombinant human FGF basic, […], 0.01˜50 μM LY294002, 0.01˜20 μM AKT inhibitor, or conventional osteogenic supplements (10 mM β-glycerophosphate, 0.1 mM Dexamethasone, 0.1 mM L-ascorbic acid) for […], with daily replacement with a fresh embryonic stem cell culture medium (FIG. 2A).
(§1) The differentiation of human embryonic stem cells into osteoblasts in Example 3 was examined by detecting the expression of osteoblast-specific genes through RT-PCR and quantitative real-time PCR. For this, after treatment or non-treatment with rapamycin, LY294002, an AKT inhibitor or osteogenic supplements (10 mM β-glycerophosphate, 0.1 mM Dexamethasone, and 0.1 mM L-ascorbic acid), cells were collected according to differentiation stages and subjected to total RNA isolation using a TRIzol reagent (Invitrogen, USA). The RNA was used as a template to synthesize cDNA with a oligo(dT) primer in the presence of a Superscript II reverse transcriptase, followed by PCR with various primers listed in Table 1, below.
First, a description is given of the adhesion culture method. […] Afterwards, the human embryonic stem cells are induced to differentiate into osteoblasts by being cultured for five days in a medium that is the same except that it is free of recombinant human FGF basic and is supplemented with LY294002, an AKT inhibitor, rapamycin, and/or conventional osteogenic supplements (10 mM 3-glycerophosphate, 0.1 mM Dexamethasone, and 0.1 mM L-ascorbic acid) (Stage II).

[2] = test system: human embryonic stem cells; test: Cytotoxicity in differentiation culture; type: cell-based; conditions: for cytotoxicity: 10 μM of LY29400, 1 μM of an AKT inhibitor, or 220 nM of rapamycin
[3] = test system: human embryonic stem cell-derived embryoid bodies; test: RT-PCR of osteoblast-specific genes, embryoid body formation method (FIG. 6); type: cell-based; conditions: for expression level of osteoblastic markers / expression level of osteoblast-specific genes compared to untreated control: embryoid bodies; for expression level of osteoblastic markers: 20 nM rapamycin for three weeks; for expression level of osteoblast-specific genes compared to untreated control: LY294002 (0-50 μM), AKT inhibitor (0-20 μM), or rapamycin (0-200 nM) for 1~3 weeks; for expression levels of osteoblast-specific genes: embryoid body formation method
Procedure: After being collected as a suspension, the cell clumps were transferred into bacterial cell culture dishes and incubated for 5 days in a suspension culture manner. Afterwards, the embryoid bodies thus obtained were transferred to Matrigel (BD biosciences, USA)-coated culture dishes, free of human recombinant FGF basic, containing 0.1˜200 nM rapamycin, […], or osteogenic supplements (10 mM β-glycerophosphate, 0.1 mM Dexamethasone, and 0.1 mM L-ascorbic acid) for three weeks in an adhesion culture manner to achieve osteogenic differentiation (FIG. 3A).
as §1
(§2) Osteogenic differentiation using the embryoid body formation method is schematically illustrated in FIG. 3A. Initially, human embryonic stem cells are cultured for one day in the same manner as in the adhesion culture method, after which the colonies thus grown are sliced into cell clumps using a tool made from a glass pipette.

PI3K = conditions: cited from earlier work
[4] = test system: PI4K, an EGR receptor, a PDGF receptor, an insulin receptor, an MAP kinase, an S6 kinase; conditions: cited from earlier work
[5] = test system: human embryonic stem cell-derived embryoid bodies; test: Immunofluorescent staining for BSP and osteocalcin; type: cell-based
Procedure: The osteogenic differentiation of the cells obtained using the three differentiation inducing techniques described in Example was identified by immunofluorescent staining. First, the cells were placed on a 1 cm^2 cover glass and the medium was aspirated. Following washing with PBS, the cells were incubated with a fixing solution (citrate-acetone-formaldehyde) for about 30 sec at room temperature and washed with distilled water for 45 sec. Next, treatment with 3% bovine serum albumin/phosphate buffered saline (BSA/PBS) for 30 min was followed by incubation with a primary antibody for 12 hrs. Then, the cells were washed three times for 15 min in 0.1% Triton X-100/PBS before labeling by incubation with an Alexa488-conjugated secondary antibody (Molecular probes, USA) for 30 min at room temperature. The cells were washed again three times in 0.1% Triton X-100/PBS for 15 min each time for observation under a fluorescent microscope (Olympus, Japan). In order to identify osteogenic differentiation, anti-bone sialoprotein (anti-BSP, Chemicon; 1:100), and anti-osteocalcin (R&D Systems; 1:500) were used for immunofluorescence.

[6] = test system: human embryonic stem cell-derived embryoid bodies; test: Analysis for mineralization by Alizarin-Red S staining; type: cell-based
Procedure: The cells obtained using the three differentiation inducing techniques described in Example 3 were analyzed for mineralization using an Alizarin-Red S staining method. After aspirating the culture medium, the cells on the culture dish were washed with PBS and fixed at 4° C. for 1 hr with 70% ethanol. Thereafter, the cells were stained with a 40 mM alizarin red (AR) solution (pH 4.2) for 10 min, washed with distilled water, and observed for mineral nodule formation under an optical microscope before they were completely dried. […] A culture period of three weeks was required to maximize the number of Alizarin Red-positive cells upon osteogenic differentiation with rapamycin alone.

[7] = test system: human embryonic stem cell-derived embryoid bodies; test: Quantitative real-time PCR of osteoblast-specific genes (FIGS. 7, 8, 11); type: cell-based
Procedure: After being collected as a suspension, the cell clumps were transferred into bacterial cell culture dishes and incubated for 5 days in a suspension culture manner. Afterwards, the embryoid bodies thus obtained were transferred to Matrigel (BD biosciences, USA)-coated culture dishes, free of human recombinant FGF basic, containing 0.1˜200 nM rapamycin, 0.01˜50 μM LY294002, 0.01˜20 μM AKT inhibitor, or osteogenic supplements (10 mM β-glycerophosphate, 0.1 mM Dexamethasone, and 0.1 mM L-ascorbic acid) for three weeks in an adhesion culture manner to achieve osteogenic differentiation (FIG. 3A).
as §1, §2

[8] = osteoblasts differentiated from embryoid bodies, FIG. 6
[9] = embryoid bodies, one week of differentiation, FIG. 7
[10] = two weeks of differentiation culture, FIG. 7

CCCCCCCCCCCCCCCCCCOC[C@H](COC(=O)OC1C(O)C(O)C(O)C(CO)C1O)OC (stereo partly drawn) [AKT inhibitor]
expression of osteoblast-specific genes [1]: efficiently expressed
expression level of osteoblastic markers [1]: increase in expression level
cytotoxicity [2]: without the occurrence of cytotoxicity
expression level of osteoblastic markers [3]: increase in expression level
expression level of osteoblast-specific genes compared to untreated control [3]: increase in the expression level
expression levels of osteoblast-specific genes ([3]; FIG. 6): increase the expression levels
expression of osterix and osteoprotegerin [3, 8]: expressed at high levels

O=c1cc(N2CCOCC2)oc2c(-c3ccccc3)cccc12 [LY294002]
inhibition of PI3K (PI3K): inhibits PI3K
inhibition of PI4K, an EGR receptor, a PDGF receptor, an insulin receptor, an MAP kinase, an S6 kinase [4]: does not inhibit
expression of osteoblast-specific genes [1]: efficiently expressed
expression level of osteoblastic markers [1]: increase in expression level
cytotoxicity [2]: without the occurrence of cytotoxicity
expression level of osteoblastic markers [3]: increase in expression level
expression level of osteoblast-specific genes compared to untreated control [3]: increase in the expression level
expression levels of osteoblast-specific genes ([3]; FIG. 6): increase the expression levels
expression of osterix and osteoprotegerin [3, 8]: expressed at high levels

CO[C@H]1C[C@@H]2CC[C@@H](C)[C@@](O)(O2)C(=O)C(=O)N2CCCC[C@H]2C(=O)O[C@H]([C@H](C)C[C@@H]2CC[C@@H](O)[C@H](OC)C2)CC(=O)[C@H](C)/C=C(\C)[C@@H](O)[C@@H](OC)C(=O)[C@H](C)C[C@H](C)/C=C/C=C/C=C/1C [rapamycin]
ability to induce osteogenic differentiation relative to conventional osteogenic supplements ([5]; FIG. 9): as good as or better than
number of cells differentiated into osteoblasts (BSP or osteocalcin antibody) relative to conventional osteogenic supplements ([5]; FIG. 9): same or greater number
immunofluorescent staining with antibodies to BSP and osteocalcin ([5]; embryoid bodies, three weeks, 20 nM rapamycin): positively stained
expression of osteoblast-specific genes, dose comparison ([1]; 20 nM versus 10 nM of rapamycin): greater levels in the presence of 20 nM than 10 nM
expression levels of Osteocalcin and Osteonectin, dose comparison ([1]; 20 nM versus 10 nM rapamycin, FIG. 5): higher at a dose of 20 nM than 10 nM
expression of osteoblast-specific genes [1]: efficiently expressed
expression level of osteoblastic markers [1]: increase in expression level
expression of osterix, BMP2, and osteonectin genes ([1]; two cell lines, adhesion culture, FIG. 5): expressed in both cell lines, but in different patterns
expression of osteoblastic markers Cbfa-1, osteocalcin, and osteoprotegerin ([1]; two independently established cell lines, adhesion culture, compared to an undifferentiated control, FIG. 5): expressed; also recorded: distinctively higher levels
cytotoxic effects ([2]; 20 nM of rapamycin added to a culture medium): no cytotoxic effects
cytotoxicity [2]: without the occurrence of cytotoxicity
expression level of osteoblastic markers [3]: increase in expression level
expression level of osteoblast-specific genes compared to untreated control [3]: increase in the expression level
expression levels of osteoblast-specific genes ([3]; FIG. 6): increase the expression levels
osteogenic induction activity among the three compounds ([3]; even at low doses, FIG. 6): most potent induction activity
induction of embryoid bodies to differentiate into osteoblasts relative to LY294002 and AKT inhibitor ([3]; osteoblastic markers, FIG. 6): more effectively induce
amounts of marker genes expressed relative to LY294002 or an AKT inhibitor [3, 8]: as great as or greater than
diversity of expressed marker genes (BMP2, osteocalcin, Cbfa-2, osterix, osteoprotegerin, GATA2, CMP) [3, 8]: highest diversity
expression of osterix and osteoprotegerin [3, 8]: expressed at high levels
Alizarin-Red staining of differentiated cells ([6]; cells induced to differentiate, FIG. 10): positively stained
incubation needed to obtain a mature osteoblast phenotype ([6]; embryoid bodies incubated with rapamycin): additional three weeks
differentiation into mature osteoblasts ([6]; embryoid bodies, 20 nM rapamycin for three weeks): most efficient differentiation
Alizarin Red S staining ([6]; embryoid bodies, three weeks, 20 nM rapamycin, FIG. 10): positively stained
culture period required to maximize the number of Alizarin Red-positive cells ([6]; osteogenic differentiation with rapamycin alone): three weeks
osteogenic differentiation activity relative to conventional osteogenic supplements (cell morphology, expression level of osteoblastic markers) ([7]; FIGS. 2, 7 and 8): as good as or better than
expression level of osterix, BMP2, BMP4, α1 type I collagen, osteocalcin, osteoprotegerin, osteonectin, and osteopontin ([7]; after three weeks of differentiation culture, FIG. 8): continued to increase in expression level
expression level of Cbfa1 ([7]; both human embryonic stem cell lines, after three weeks of differentiation culture): decreased in the expression level
expression levels of osterix, BMP4, α1 type I collagen, osteoprotegerin, and osteopontin ([7]; both human embryonic stem cell lines, three weeks of differentiation culture): similarly increased
expression of BMP2 increased [7, 9]: 1.38 fold
expression of BSP increased [7, 9]: 6.54 fold
expression of Cbfa1 increased [7, 9]: 3.24 fold
expression of osteocalcin increased [7, 9]: 1.84 fold
expression of osteopontin increased [7, 9]: 2.89 fold
expression level of osteoblastic markers ([7]; embryoid bodies, one week of incubation with rapamycin, FIG. 7): increase in expression level
expression level of BMP2 increased [7, 10]: 1.34 fold
expression level of BMP4 increased [7, 10]: 1.18 fold
expression level of BSP increased [7, 10]: 1.63 fold
expression level of Cbfa-1 increased [7, 10]: 2.11 fold
expression level of osteocalcin increased [7, 10]: 1.61 fold
expression level of osteonectin increased [7, 10]: 1.94 fold
expression level of osteopontin increased [7, 10]: 5.81 fold
expression level of osteoprotegerin increased [7, 10]: 2.18 fold
expression level of osterix increased [7, 10]: 1.59 fold
expression level of α1 type I collagen increased [7, 10]: 1.35 fold
